Measured values reported in US6489321B1, “Nonpeptide substituted benzothiazepines as vasopressin antagonists” (Ortho-McNeil Pharmaceutical, Inc., priority 1999, dated 2002).

Assays:
[1] = biological target: vasopressin V1a receptor (Homo sapiens, UniProt P37288); assay: In-vitro vasopressin receptor binding assay, V1a; conditions: for IC50: footnote 1: IC50 values (μM); for inhibition at 1 µM / inhibition at 0.1 µM: read-out: Receptor Binding (% Inh. @ concentration in μM) V1a
[2] = biological target: T1, cloned human V2 receptor (Homo sapiens, UniProt P30518); assay: In-vitro vasopressin receptor binding assay, V2; conditions: 3H-arginine-8-vasopressin; for IC50: footnote 1: IC50 values (μM)
T1 construct: expressed in transfected cells
Protocol: Assay buffer is 50 mM Tris-Cl, 5 mM MgC12, 0.1% BSA (pH 7.5) containing 5 ug/ml of aprotinin, leupeptin, pepstatin, 50 ug/ml bacitracin, and 1 mM Pefabloc. H3 vasopressin is ^3H-arginine-8-vasopressin (68.5 Ci/mmol, final concentration in assay is 0.65-0.75nM). Into wells of 96-well round bottom polypropylene plates are added buffer, test compound, membrane (containing cloned human V2 receptor), and H3 vasopressin. The reaction plates are allowed to sit at room temperature for one hour. The samples are filtered through Unifilter GF/C plates (presoaked in 0.3 polyethyleneimine). The plates are washed 5 times with cold physiological saline containing 0.05% Tween 20. After drying, the bottom of the filter plates are sealed and 0.025 ml of Microscint-20 is added to each filter. The top of the plate is sealed, and the plate is counted. Non-specific binding is determined by the addition of 1.25 uM arginine-8-vasopressin in those wells. %Inh. is [formula]

T1 sequence (P30518 whole entry): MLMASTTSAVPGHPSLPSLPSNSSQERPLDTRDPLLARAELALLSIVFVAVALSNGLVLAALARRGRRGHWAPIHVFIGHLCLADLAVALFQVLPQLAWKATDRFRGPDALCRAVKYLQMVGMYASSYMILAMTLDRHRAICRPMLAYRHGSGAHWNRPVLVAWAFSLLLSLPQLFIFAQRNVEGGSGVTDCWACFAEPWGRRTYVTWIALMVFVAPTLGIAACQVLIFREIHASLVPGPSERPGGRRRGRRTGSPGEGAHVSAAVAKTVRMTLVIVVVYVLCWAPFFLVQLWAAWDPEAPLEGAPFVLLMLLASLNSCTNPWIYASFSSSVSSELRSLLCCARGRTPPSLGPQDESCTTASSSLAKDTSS
Sequence of vasopressin V1a receptor (P37288 whole entry): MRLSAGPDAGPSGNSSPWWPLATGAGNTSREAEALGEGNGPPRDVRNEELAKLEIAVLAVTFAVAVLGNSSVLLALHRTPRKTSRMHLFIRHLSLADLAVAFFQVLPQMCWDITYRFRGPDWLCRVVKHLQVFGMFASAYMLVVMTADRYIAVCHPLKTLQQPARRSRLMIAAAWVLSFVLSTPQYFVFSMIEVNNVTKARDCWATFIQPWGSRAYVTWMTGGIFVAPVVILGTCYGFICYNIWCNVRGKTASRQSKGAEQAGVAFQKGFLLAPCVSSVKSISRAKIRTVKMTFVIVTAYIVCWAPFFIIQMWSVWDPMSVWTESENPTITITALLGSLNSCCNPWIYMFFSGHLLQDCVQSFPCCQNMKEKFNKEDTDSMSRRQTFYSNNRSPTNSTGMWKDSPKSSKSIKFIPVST

Compound: Cc1ccccc1C(=O)Nc1ccc(S(=O)(=O)N2CCC(CCO)Sc3ccccc32)cc1 (centres unmarked) [Compound 5]
- Receptor Binding (% Inh. @ concentration in μM) V1a ([1]; 10 μM test compound): 13% @ 10
- IC50 [2]: 0.76 µM

Compound: Cc1ccccc1C(=O)Nc1ccc(CN2C(=O)CC(CCN)Sc3ccccc32)cc1 (centres unmarked) [Compound 7, 2-(2-Aminoethyl)-5-[4-(2-methylbenzoylamino)-benzyl]-1,5-benzothiazepine-4-one]
- Receptor Binding (% Inh. @ concentration in μM) V1a ([1]; 10 μM test compound): 10% @ 10
- Receptor Binding (% Inh. @ concentration in μM) V2 ([2]; 10 μM test compound): 4% @ 10

Compound: COc1ccc(CNCCC2CC(=O)N(Cc3ccc(NC(=O)c4ccccc4C)cc3)c3ccccc3S2)c(OC)c1 (centres unmarked) [Compound 8]
- Receptor Binding (% Inh. @ concentration in μM) V1a ([1]; 10 μM test compound): 33% @ 10
- Receptor Binding (% Inh. @ concentration in μM) V2 ([2]; 10 μM test compound): 32% @ 10

Compound: Cc1ccccc1C(=O)Nc1ccc(C(=O)N2CCC(CCN(C)C)Sc3ccccc32)cc1 (centres unmarked) [Compound 9]
- IC50 [1]: 1.5 µM
- Receptor Binding (% Inh. @ concentration in μM) V2 ([2]; 10 μM test compound): 63% @ 10

Compound: CN(C)CCC1CCN(C(=O)c2ccc(NC(=O)c3ccccc3-c3ccccc3)cc2)c2ccccc2S1 (centres unmarked) [Compound 11, 2-(2-Dimethylaminoethyl)-5-(4-(2-phenylbenzoylamino)benzoyl)-1,5-benzothiazepine]
- Receptor Binding (% Inh. @ concentration in μM) V1a ([1]; 10 μM test compound): 63% @ 10
- IC50 [2]: 0.43 µM

Compound: CN(C)CCC1CCN(C(=O)c2ccc(N)cc2)c2ccccc2S1 (centres unmarked) [Compound 12]
- Receptor Binding (% Inh. @ concentration in μM) V1a ([1]; 10 μM test compound): 35% @ 10
- Receptor Binding (% Inh. @ concentration in μM) V2 ([2]; 10 μM test compound): 6% @ 10

Compound: CNCCC1CCN(C(=O)c2ccc(NC(=O)c3ccccc3C)cc2)c2ccccc2S1 (centres unmarked) [Compound 14]
- Receptor Binding (% Inh. @ concentration in μM) V1a ([1]; 1 μM test compound): 50% @ 1
- Receptor Binding (% Inh. @ concentration in μM) V2 ([2]; 1 μM test compound): 28% @ 1

Compound: Cc1ccccc1C(=O)Nc1ccc(C(=O)N2CCC(CCN)Sc3ccccc32)cc1 (centres unmarked) [Compound 15, 2-(2-Aminoethyl)-5-[4-(2-methylbenzoylamino)benzoyl]-1,5-benzothiazepine]
- Receptor Binding (% Inh. @ concentration in μM) V1a ([1]; 1 μM test compound): 42% @ 1
- Receptor Binding (% Inh. @ concentration in μM) V2 ([2]; 1 μM test compound): 47% @ 1

Compound: O=C(Nc1ccc(C(=O)N2CCC(CCO)Sc3ccccc32)cc1)c1ccccc1-c1ccccc1 (centres unmarked) [Compound 17]
- IC50 [1]: 0.097 µM
- IC50 [2]: 0.008 µM

Compound: Cc1ccccc1C(=O)Nc1ccc(C(=O)N2CCC(CCO)Sc3ccccc32)cc1 (centres unmarked) [Compound 18]
- IC50 [1]: 0.041 µM
- IC50 [2]: 0.048 µM

Compound: O=C(Nc1ccc(S(=O)(=O)N2CCC(CCO)Sc3ccccc32)cc1)c1ccccc1-c1ccccc1 (centres unmarked) [Compound 19, 2-(2-Hydroxyethyl)-5-[4-(2-phenylbenzoylamino)-benzenesulfonyl]-1,5-benzothiazepine]
- Receptor Binding (% Inh. @ concentration in μM) V1a ([1]; 1 μM test compound): 34% @ 1
- Receptor Binding (% Inh. @ concentration in μM) V2 ([2]; 1 μM test compound): 27% @ 1

Compound: Cc1ccccc1C(=O)Nc1ccc(CN2C(=O)CC(CCO)Sc3ccccc32)cc1 (centres unmarked) [Compound 22, 2-(2-Hydroxyethyl)-5-(4-(2-methylbenzoylamino)benzyl)-1,5-benzothiazepine-4-one]
- Receptor Binding (% Inh. @ concentration in μM) V1a ([1]; 1 μM test compound): 54% @ 1
- Receptor Binding (% Inh. @ concentration in μM) V2 ([2]; 1 μM test compound): 33% @ 1

Compound: O=C(Nc1ccc(CN2C(=O)CC(CCO)Sc3ccccc32)cc1)c1ccccc1-c1ccccc1 (centres unmarked) [Compound 23, 2-(2-Hydroxyethyl)-5-(4-(2-phenylbenzoylamino)benzyl)-1,5-benzothiazepine-4-one]
- Receptor Binding (% Inh. @ concentration in μM) V1a ([1]; 1 μM test compound): 33% @ 1
- Receptor Binding (% Inh. @ concentration in μM) V2 ([2]; 1 μM test compound): 43% @ 1

Compound: O=C(O)CC1CCN(C(=O)c2ccc(NC(=O)c3ccccc3-c3ccccc3)cc2)c2ccccc2[S+]1[O-] (centres unmarked) [Compound 24, 2-Carboxymethyl-1-oxo-5-(4-(2-phenylbenzoylamino)benzoyl)-1,5-benzothiazepine]
- inhibition at 1 µM ([1]; 1 μM test compound): 0%
- IC50 [2]: 0.108 µM

Compound: O=CCC1CCN(C(=O)c2ccc(NC(=O)c3ccccc3-c3ccccc3)cc2)c2ccccc2S1 (centres unmarked) [Compound 25, 2-[5-[4-(2-Phenylbenzoylamino)benzoyl]-1,5-benzothiazepine]acetaldehyde]
- inhibition at 1 µM ([1]; 1 μM test compound): 30%
- IC50 [2]: 0.014 µM

Compound: O=C(O)CC1CCN(C(=O)c2ccc(NC(=O)c3ccccc3-c3ccccc3)cc2)c2ccccc2S1 (centres unmarked) [Compound 29, 2-Carboxymethyl-5-(4-(2-phenylbenzolylamino)benzoyl)-1,5-benzothiazepine]
- inhibition at 0.1 µM ([1]; 0.1 μM test compound): 16%
- IC50 [2]: 0.004 µM
- melting point: 204 to 208 °C

Compound: N#CCCC1CCN(C(=O)c2ccc(NC(=O)c3ccccc3-c3ccccc3)cc2)c2ccccc2S1 (centres unmarked) [Compound 30]
- Receptor Binding (% Inh. @ concentration in μM) V1a ([1]; 0.1 μM test compound): 34% @ .1
- IC50 [2]: 0.069 µM

Compound: O=C(O)CCC1CCN(C(=O)c2ccc(NC(=O)c3ccccc3-c3ccccc3)cc2)c2ccccc2S1 (centres unmarked) [Compound 31]
- inhibition at 0.1 µM ([1]; 0.1 μM test compound): 30%
- IC50 [2]: 0.009 µM

Compound: O=C(Nc1ccc(C(=O)N2CCC(CCS(=O)(=O)O)Sc3ccccc32)cc1)c1ccccc1-c1ccccc1 (centres unmarked) [Compound 32, 2-Ethyl[5-[4-(2-phenylbenzoylamino)benzoyl]-1,5-benzothiazepin]sulfonic Acid]
- inhibition at 0.1 µM ([1]; 0.1 μM test compound): 10%
- IC50 [2]: 0.012 µM

Compound: O=C(Nc1ccc(C(=O)N2CCC(CCO)S(=O)(=O)c3ccccc32)cc1)c1ccccc1-c1ccccc1 (centres unmarked) [Compound 35, 2-(2-Hydroxyethyl)-1-dioxo-5-(4-(2-phenylbenzoylamino)-benzoyl)-1,5-benzothiazepine]
- Receptor Binding (% Inh. @ concentration in μM) V1a ([1]; 0.1 μM test compound): 2% @ .1
- Receptor Binding (% Inh. @ concentration in μM) V2 ([2]; 0.1 μM test compound): 20% @ .1

Compound: O=C(Nc1ccc(C(=O)N2CCC(CCO)[S+]([O-])c3ccccc32)cc1)c1ccccc1-c1ccccc1 (centres unmarked) [Compound 36, 2-(2-hydroxyethyl)-1-oxo-5-(4-(2-phenylbenzoylamino)-benzoyl)-1,5-benzothiazepine]
- Receptor Binding (% Inh. @ concentration in μM) V1a ([1]; 0.1 μM test compound): 0 @ .1%
- Receptor Binding (% Inh. @ concentration in μM) V2 ([2]; 0.1 μM test compound): 38% @ .1

Compound: COC(=O)CC1CCN(C(=O)c2ccc(NC(=O)c3ccccc3-c3ccccc3)cc2)c2ccccc2S1 (centres unmarked) [Compound 37, 2-Methyl-[5-(4-(2-phenylbenzoylamino)benzoyl)-1,5-benzothiazepine]acetate]
- Receptor Binding (% Inh. @ concentration in μM) V1a ([1]; 0.1 μM test compound): 17% @ .1
- IC50 [2]: 0.05 µM

Compound: CC(C)(N)C(=O)NCCC1CCN(C(=O)c2ccc(NC(=O)c3ccccc3-c3ccccc3)cc2)c2ccccc2S1.Cl (centres unmarked) [Compound 39, 2-[2-Amino-2-methylpropionamido]-ethyl-5-[4-(2-phenylbenzoylamino)benzoyl]-1,5-benzothiazepine Hydrochloride]
- Receptor Binding (% Inh. @ concentration in μM) V1a ([1]; concentration not given): 0%
- IC50 [2]: 0.017 µM
